These results are taken from patent publication US7279332B2, “Method of isolating ependymal neural stem cells” (NeuroNova AB, priority 1998, dated 2007).

The test system of this assay is nigral dopamine neurons (substantia nigra pars compact). The assay can be described thus: Quantitative in vivo neurogenesis in substantia nigra pars compact after DiI labeling of ependymal cells. Particulars: mice. The protocol: Adult rats and mice were given DiI through intraventricular injections as described in the example above. At various time intervals after the injection (hours-months), the animals were transcardially perfused with 15 ml 0.9% saline, followed by 50 ml of +4° C. 4% (w/v) paraformaldehyde and 0.4% (v/v) picric acid in 0.1 M phosphate buffered saline, pH 6.9, during 5 min. After brain removal, the tissue was fixed for an additional 90 minutes in the same fixative and cryoprotected in buffered sucrose (10% for 24 h, 30% for 2 days) at +4° C. The entire midbrain was cut with a cryostat using a systematic, uniform random sampling design, where 40 μm thick frontal sections were taken to six parallel rostrocaudal series. One series of sections was kept in 0.1 M PBS and the fluorescent signal was immediately converted to a permanent diaminobenzidine (DAB) signal using a modified previously described protocol (Singleton et al., J. Neurosci. Meth. 64:47). […] The photoconversion process was carefully evaluated and when all the fluorescent signal in substantia nigra was visualized with the brown DAB product, the sections were immunohistochemically labeled with a marker (Vector SG, Vector) for dopamine neurons (tyrosine hydroxylase) utilizing the avidin-biotin-immunoperoxidase system (Vector) (Janson et al., Neuroscience 57:931). The five parallel series of sections were instead stored in 30% sucrose in 0.1 M PBS at −20° C. until they were processed for immunohistochemistry and analyzed in a confocal laser scanning microscope utilizing several markers for glia and neurons (with appropriate controls) to determine the neuronal phenotype of the DiI labeled cells in substantia nigra pars compact (FIG. 8).
Quantitative estimates of the total number of TH immunoreactive cell bodies counterstained with cresyl violet (TH/CV+ neurons) as well as TH immunoreactive cell bodies also containing DiI label were made in the bilateral SNc. Neuronal counts were determined using coded sections and a stereological technique, the optical fractionator (Janson et al., Neuroscience 57:931). […]

As to `CN1CC=C(c2ccccc2)CC1` [MPTP, 1-methyl-4-phenyl-1,2,3,6-tetrahydropyridine], where the note is “MPTP 40 mg/kg sc. vs vehicle”, the “number of TH+/DiI+ nigral neurons” value was “higher numbers of TH+/DiI+ nigral neurons”. Also, the “migratory streams of DiI+ cells in the midbrain” value (MPTP 40 mg/kg sc. vs vehicle, qualitative appearance) was “appeared more pronounced”. For the same compound, the “increase in number of new neurons generated each week in substantia nigra, compared to animals treated with vehicle alone” value (MPTP 40 mg/kg sc., regression curve (r^2=0.744) of counts at a few hours to 2 months) came to 24%.
